Structures are written as SMILES. Converted amounts (≈) assume the structure as drawn.

This assay concerns Staphylococcus aureus Smith. Kind of assay: MIC assay, modified agar dilution (CLSI), S. aureus Smith. The note with it: Staphylococcus aureus, agar dilution, 35° C., 16-20 hr; lowest concentration that completely inhibited growth; read-out: S_aureus_Smith_WT_MIC. Type of assay: cell-based. A digest of the protocol:
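Strains were spotted at about 1×10^4 CFU onto compound-containing Mueller Hinton agar (two-fold series, 128-0.001 μg/mL), horse blood 5% added for pneumococcus and enterococcus. MIC read after 16-20 hr at 35 °C, following a modified CLSI agar dilution method.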
Take `CCc1c(CNC23CCC(CCc4c(F)cnc5ccc(OC)nc45)(CC2)OC3)nc2c(c1C)OCC(=O)N2.Cl` [Example 198, N-((7-Ethyl-8-methyl-3-oxo-3,4-dihydro-2H-pyrido[3,2-b][1,4]oxazin-6-yl)methyl)-1-(2-(3-fluoro-6-methoxy-1,5-naphthyridin-4-yl)ethyl)-2-oxabicyclo[2.2.2]octan-4-aminium chloride]: the MIC was determined as 2 µg/mL.

For the molecule `C=Cc1c(CNC23CCC(CCc4c(F)cnc5ccc(OC)nc45)(CC2)OC3)nc2c(c1C)OCC(=O)N2.Cl` [Example 199, 1-(2-(3-Fluoro-6-methoxy-1,5-naphthyridin-4-yl)ethyl)-N-((8-methyl-3-oxo-7-vinyl-3,4-dihydro-2H-pyrido[3,2-b][1,4]oxazin-6-yl)methyl)-2-oxabicyclo[2.2.2]octan-4-aminium chloride], the MIC worked out at 0.25 µg/mL.

Regarding `N#Cc1ccc2c(c1)N(CCC13CCC(NCc4ccc5c(n4)NC(=O)CO5)(CC1)CO3)C(=O)CO2` [Example 202, 1-(2-(6-Cyano-3-oxo-2H-benzo[b][1,4]oxazin-4(3H)-yl)ethyl)-N-((3-oxo-3,4-dihydro-2H-pyrido[3,2-b][1,4]oxazin-6-yl)methyl)-2-oxabicyclo[2.2.2]octan-4-aminium chloride], the MIC was determined as 0.25 µg/mL.

Consider `O=C1COc2ccc(CNC34CCC(CCN5C(=O)COc6ccc(Br)cc65)(CC3)OC4)nc2N1` [Example 203, 1-(2-(6-Bromo-3-oxo-2H-benzo[b][1,4]oxazin-4(3H)-yl)ethyl)-N-((3-oxo-3,4-dihydro-2H-pyrido[3,2-b][1,4]oxazin-6-yl)methyl)-2-oxabicyclo[2.2.2]octan-4-aminium chloride], for which the MIC worked out at 0.25 µg/mL.

Consider `COc1ccc2ncc(F)c(C[C@H](O)C34CCC(NCc5ccc6c(c5)NC(=O)CS6)(CC3)CO4)c2n1.Cl` [Example 204, (S)-1-(2-(3-Fluoro-6-methoxy-1,5-naphthyridin-4-yl)-1-hydroxyethyl)-N-((3-oxo-3,4-dihydro-2H-benzo[b][1,4]thiazin-6-yl)methyl)-2-oxabicyclo[2.2.2]octan-4-aminium chloride], for which the MIC was 0.06 µg/mL.

Regarding `COc1ccc2ncc(F)c(C[C@H](O)C34CCC(NCc5ccc6c(c5)NC(=O)CS6(=O)=O)(CC3)CO4)c2n1` [Example 205, (S)—N-((1,1-Dioxido-3-oxo-3,4-dihydro-2H-benzo[b][1,4]thiazin-6-yl)methyl)-1-(2-(3-fluoro-6-methoxy-1,5-naphthyridin-4-yl)-1-hydroxyethyl)-2-oxabicyclo[2.2.2]octan-4-aminium chloride], the MIC was found to be 2 µg/mL.

Consider `COc1ccc2ncc(F)c(C[C@H](O)C34CCC(NCc5ccc6c(n5)NCCO6)(CC3)CO4)c2n1` [Example 206, (S)-6-(((1-(2-(3-Fluoro-6-methoxy-1,5-naphthyridin-4-yl)-1-hydroxyethyl)-2-oxabicyclo[2.2.2]octan-4-yl)ammonio)methyl)-3,4-dihydro-2H-pyrido[3,2-b][1,4]oxazin-4-ium chloride], for which the MIC is 0.06 µg/mL.

Consider `COc1ccc2ncc(F)c(CCC34CCC(NCc5ccc6c(n5)OCCN6)(CC3)CO4)c2n1` [Example 207, 6-(((1-(2-(3-Fluoro-6-methoxy-1,5-naphthyridin-4-yl)ethyl)-2-oxabicyclo[2.2.2]octan-4-yl)ammonio)methyl)-2,3-dihydro-1H-pyrido[2,3-b][1,4]oxazin-1-ium chloride], for which the MIC amounted to 0.5 µg/mL.

With `COc1ccc2ncc(F)c(C(O)CC34CCC(NCc5ccc6c(n5)NC(=O)CO6)(CC3)CS4)c2n1` (stereo not drawn) [Example 208, 6-(((1-(2-(3-Fluoro-6-methoxy-1,5-naphthyridin-4-yl)-2-hydroxyethyl)-2-thiabicyclo[2.2.2]octan-4-yl)amino)methyl)-2H-pyrido[3,2-b][1,4]oxazin-3(4H)-one], the MIC came to 0.06 µg/mL (≈ 0.114 µM).
